Test results reported in US12660818B2, “Strigolactone analogs and methods of using” (King Abdullah University of Science and Technology, priority 2019, dated 2026).
Where two headings read alike, the source gives them in different places.

Tests used:
[1] = tested on: P. aegyptiaca seeds; experiment: Parasitic seed germination bioassay, Phelipanche; assay type: in vivo, Phelipanche aegyptiaca; conditions: 2.5 μM; for Phelipanche aegyptiaca germination rate: one week at 25° C. in dark
Protocol: (§1) Seeds of the two root parasitic species S. hermonthica and P. aegyptiaca were tested for germination in response to MP compounds application. After pre-conditioning, as previously described (Jamil et al., 2012), Striga and Phelipanche seeds were first tested with each MP solutions at 2.5 μM concentration (55 μl per disc) and then at a concentration range from 10^−5M to 10^−12M, to calculate EC50. Sterile MilliQ water and GR24 were applied as a negative and a positive control, respectively. Treated seeds were incubated in dark for 24 h at 30° C. (for S. hermonthica) and for one week at 25° C. (for P. aegyptiaca). Germination was recorded under a binocular microscope and used to determine the germination rate (%).

[2] = tested on: S. hermonthica seeds; experiment: Parasitic seed germination bioassay, Striga; assay type: in vivo, Striga hermonthica; conditions: for Striga germination rate (comparison in words) / Striga germination rate: 2.5 μM; for EC50: 10^−5M to 10^−12M; for Striga germination rate: 24 h at 30° C. in dark
Protocol: (§2) Standard procedure was adopted to collect data for each trait, which were analyzed statistically using statistical software package R (version 3.2.2). One-way analysis of variance (ANOVA) and LSD (Least significant difference) multiple range test were applied to investigate the effect of various SL analogs (MPs 16-18 and 21-25) for various parameters. Half Maximum Effective Concentration (EC50) was calculated using IC50 toolkit (http://www.ic50.tk/index.html).
as §1

[3] = Chemical stability in aqueous solution monitored by HPLC/UPLC; assay type: physicochemical; conditions: aqueous solution pH 5.5-6.0, 21±1° C., HPLC, up to 3 weeks
Protocol: Three selected MPs (MP16, MP18, MP21) and rac-GR24 were tested for their chemical stability at 21±1° C. in aqueous solution with a pH of 5.5-6.0, as described previously (Jamil et al., 2018). Compound solution (1 mg ml^−1) was prepared with […] and 750 μl Mili-Q water. Thereafter, 25 μl Indanol (1 mg ml^−1, internal standard) was spiked in 975 μl previous prepared solution. The time course of degradation was monitored in about 50 μl aliquots by UPLC analysis using an Agilent HPLC ZORBAX Eclipse XDB-C18 column ([…], 4.6×150 mm) eluted first by 5% acetonitrile in water for 0.5 min then by a gradient from 5% to 100% acetonitrile within 18 min in water, and finally by 100% acetonitrile for 5 min. The column was operated at 40° C. at […] flow rate. Compounds eluted from the column were detected with a photodiode array detector, and the relative quantity of non-degraded amount was calculated using Indanol as internal standard. Stability was monitored at 24 h intervals up to 3 weeks.

[4] = biological target: ShHTL7 (Striga hermonthica, UniProt A0A0M3PNA2); experiment: In vitro YLG (Yoshimulactone Green) hydrolysis competition assay with ShHTL7; assay type: biochemical; conditions: competition with 1.0 μM YLG, 60 min, room temperature
Protocol: (§3) Purification of ShHTL7/OsD14 was carried out by adopting the procedure explained previously (Jamil et al., 2018). In vitro YLG hydrolysis assays were conducted as described before (Tsuchiya et al., 2015). About 3.0 μM of purified ShHTL7/OsD14 protein was used in a reaction buffer (1×PBS buffer, pH 7.3) with 0.1% dimethyl sulfoxide (DMSO) at a 100 μl volume on a 96-well black plate (Greiner). SL analogs (at range between 0.01 to 50 μM) were co-incubated with 1.0 μM of YLG (Tokyo Chemical Industry Co. Ltd., product number E1238) for 60 min at room temperature. In this competition assay, fluorescent intensity was measured by spectraMax i5 (Molecular Devices) at excitation at 480 nm and detection at 520 nm. The variation in fluorescence recorded over the course of 1 h of YLG incubation in protein-free buffer was subtracted from the data collected in presence of protein. IC50 values were calculated by using Quest Graph™ IC50 Calculator.

[5] = biological target: T1, OsD14 (Oryza sativa subsp. japonica, UniProt Q10QA5); experiment: In vitro YLG (Yoshimulactone Green) hydrolysis competition assay with OsD14; assay type: biochemical, rice
T1 construct: made in house
T1 sequence (Q10QA5 1-318): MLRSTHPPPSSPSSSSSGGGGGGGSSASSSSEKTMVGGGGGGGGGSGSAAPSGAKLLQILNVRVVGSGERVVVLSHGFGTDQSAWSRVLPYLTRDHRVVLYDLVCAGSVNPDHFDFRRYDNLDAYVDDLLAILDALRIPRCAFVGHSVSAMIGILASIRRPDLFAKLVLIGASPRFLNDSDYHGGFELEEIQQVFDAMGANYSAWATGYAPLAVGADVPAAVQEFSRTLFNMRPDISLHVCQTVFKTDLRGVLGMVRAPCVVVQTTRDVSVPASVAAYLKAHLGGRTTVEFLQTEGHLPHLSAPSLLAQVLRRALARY
Protocol: as §3

[6] = tested on: rice (cv IAC-165) leaf segments; experiment: Dark-induced leaf senescence of rice leaf segments; conditions: 3.0 μM; for ion leakage (loss of membrane integrity): continued to increase till day 6; for chlorophyll content: third and fourth day of treatment
Protocol: Rice seeds (cv IAC-165) were surface sterilized with 50% sodium hypochlorite solution and 0.05% Tween-20, and germinated on moist filter paper in the sealed petri plates. The petri plates with germinated seeds were transferred to white fluorescent light (130-180 μM m^−2 s^−1) with 16 h:8 h (L/D) at 28° C., to establish seedlings for one week. Seven days old uniform seedlings were selected and transferred to 50 ml tubes containing half strength modified Hoaglands nutrient solution. After one week, 2 cm leaf segments were cut from middle part of third leaves of rice plants. Each segment was put in a well (in 12-well plates) containing 4 ml of 3.0 mM MES buffer with 0.05% Tween-20. MP16 and GR24 were applied at 3.0 μM concentration. Plates were incubated at 30° C. in the dark for 7 days. After application of MP16 and GR24, plates were monitored on a daily basis and changes in leaf color, chlorophyll content and ion leakage were monitored.

[7] = tested on: SL insensitive d3 rice mutant; experiment: Rice micro tillering bioassay, SL insensitive d3 mutant; assay type: in vivo; conditions: 2.5 μM, three weeks, no effect of treatment
Protocol: (§4) After sterilization with 50% sodium hypochlorite, rice seeds (d10/CCD8 and d3 mutants) were germinated on moist filter paper in the dark at 30° C. The germinated seeds were then transferred to light in a growth cabinet with fluorescent white light (130-180 μM m^−2 s^−1) at 30° C. for seven days. One-week old rice seedlings were shifted to 50 ml falcon tubes (one seedling per tube) filled with half-strength modified Hoagland nutrient solution. The tubes with rice seedlings were kept in green house to grow at 30° C. and 70% humidity. After one week, the rice seedlings were treated with 2.5 μM of each SL analog. Mock and GR24 (2.5 μM) were included as control treatments. Each of the SL analogs (MPs 16-18 and 21-25) was applied twice per week up to three weeks. Number of tillers per plant, plant height and dry biomass were measured after three weeks of SL analogs application at final harvest.
as §2

[8] = tested on: SL deficient d10/CCD8 rice mutant; experiment: Rice micro tillering bioassay, SL deficient d10/CCD8 mutant; assay type: in vivo; conditions: 2.5 μM
Protocol: as §4, §2

[9] = tested on: S. hermonthica seeds; conditions: previously described MPs, cited from earlier work

ShHTL7, sequence (A0A0M3PNA2 entry or part of it): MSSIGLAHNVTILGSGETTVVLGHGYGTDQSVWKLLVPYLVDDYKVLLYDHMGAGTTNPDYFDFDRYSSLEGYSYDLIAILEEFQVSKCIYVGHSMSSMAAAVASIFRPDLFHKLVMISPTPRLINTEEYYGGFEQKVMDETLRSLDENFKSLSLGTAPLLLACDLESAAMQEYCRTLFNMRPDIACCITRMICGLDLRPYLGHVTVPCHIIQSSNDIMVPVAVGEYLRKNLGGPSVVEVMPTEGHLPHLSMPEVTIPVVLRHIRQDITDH

Row | SMILES | Phelipanche seed germination (comparison in words) [1] | Striga germination rate (comparison in words) [2] | EC50 ([2]; Striga hermonthica) [nM] | stability (relative amount of non-degraded compound) compared to GR24 [3] | EC50 compared with MPs 19 and 20 ([2]; Striga seed germination) | Phelipanche aegyptiaca germination rate [1] | other results
1 | CC1=CC(O/C=C(/C(=O)Oc2ccc(C)cc2)c2ccccc2)OC1=O (centres unmarked) [MP24, (E)-p-Tolyl 3-((4-methyl-5-oxo-2,5-dihydrofuran-2-yl)oxy)-2-phenylacrylate] | lower activity | – | – | – | – | – | –
2 | CC1=CC(O/C=C(/C(=O)Oc2ccccc2)c2ccccc2)OC1=O (centres unmarked) [MP17, (E)-Phenyl 3-((4-methyl-5-oxo-2,5-dihydrofuran-2-yl)oxy)-2-phenylacrylate] | – | lower germination rate | 4350 | – | – | – | –
3 | CC1=CC(O/C=C(/C(=O)OCc2ccccc2)c2ccccc2)OC1=O (centres unmarked) [MP18, (E)-Benzyl 3-((4-methyl-5-oxo-2,5-dihydrofuran-2-yl)oxy)-2-phenylacrylate] | – | lower germination rate | 6.44 | in the range of that of GR24 | lower EC50 than MPs 19 and 20 | around 51% | –
4 | CC1=C[C@H](O/C=C2/C(=O)O[C@@H]3c4ccccc4C[C@H]23)OC1=O [GR24, reference compound] | – | – | – | – | – | 43% | IC50 [4]: 980 ± 260 nM; IC50 ([5]; competition with 1.0 μM YLG, 60 min, room temperature, read-out: IC50, OsD14-mediated YLG hydrolysis): 1040 ± 90 nM; Striga germination rate [2]: 72%; EC50 [2]: 0.0723 nM; loss of the green color of leaf segments (time) ([6]; dark, 30° C., one day earlier than mock control): on the third day after application; ion leakage (loss of membrane integrity) ([6]; dark): began to increase on the third day of treatment; chlorophyll content [6]: significant reduction; number of tillers per plant [7]: 4
5 | CC1=CC(O/C=C(\C(=O)N(C)C)c2ccccc2)OC1=O (centres unmarked) [MP16, (Z)—N,N-Dimethyl-3-((4-methyl-5-oxo-2,5-dihydrofuran-2-yl)oxy)-2-phenylacrylamide] | – | higher than MPs 19 and 20 | 0.105 | in the range of that of GR24 | lower EC50 than MPs 19 and 20 | around 51% | tillering inhibition (in words) ([8]; d10 mutant, compared to mock treatment): more effective compared with MPs 19 and 20; effect on growth, biomass and plant height ([8]; rice seedlings, compared with GR24): stunted growth and triggered senescence in rice seedlings, leading to reduced biomass and plant height; IC50 [4]: 4370 ± 210 nM; IC50 [5]: 3070 ± 540 nM; Striga germination rate [2]: 62%; EC50 relative to that of GR24 ([2]; Striga seed germination): less than two times higher; ion leakage (loss of membrane integrity) ([6]; dark): began to increase on the third day of treatment; chlorophyll content [6]: significant reduction
6 | CC1=CC(O/C=C(/C(=O)Oc2cccc(Cl)c2)c2ccccc2)OC1=O (centres unmarked) [MP22, (E)-3-Chlorophenyl 3-((4-methyl-5-oxo-2,5-dihydrofuran-2-yl)oxy)-2-phenylacrylate] | lower activity | – | – | – | – | – | –
7 | CC1=CC(O/C=C(/C(=O)OCC(C)C)c2ccccc2)OC1=O (centres unmarked) [MP19, reference compound] | comparable germination rate as MPs 16 and 18 | – | – | – | – | – | –
8 | CC1=CC(O/C=C(/C(=O)OCc2ccccc2)c2ccccc2)OC1=O (centres unmarked) [MP21, (E)-Benzyl 3-((4-methyl-5-oxo-2,5-dihydrofuran-2-yl)oxy)-2-phenylacrylate] | lower activity | – | – | higher degradation rate, compared to GR24 | lower EC50 than MPs 19 and 20 | – | –
9 | COC(=O)/C(=C/OC1C=C(C)C(=O)O1)c1ccc([N+](=O)[O-])cc1 (centres unmarked) [MP1] | – | – | – | – | – | – | EC50 relative to that of GR24 (Jamil et al., 2018) [9]: about 17 times; EC50 ([9]; read-out: EC50 (Striga seed germination, Jamil et al., 2018)): 1.5 nM
10 | CC1=CC(O/C=C(/C(=O)Oc2cccc3ccccc23)c2ccccc2)OC1=O (centres unmarked) [MP25, (E)-naphthalen-1-yl 3-((4-methyl-5-oxo-2,5-dihydrofuran-2-yl)oxy)-2-phenylacrylate] | lower activity | – | – | – | – | – | –
